Assay results reported in patent publication US12637437B2, “Herbicidal compounds” (SYNGENTA CROP PROTECTION AG, priority 2021, dated 2026).

Legend:
Format in all cases: in vivo
[1] = tested on: Amaranthus retoflexus (AMARE); experiment: Post-emergence herbicidal glasshouse test, AMARE; parameters: dose or concentration left out as unconfirmed; conditions: evaluated after 13 days, five-point scale
How it was run: (§1)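 Pots of standard soil were sown and sprayed 1 day after sowing (pre-emergence) or after 8 days' growth (post-emergence). Spray was acetone/water (50:50) with 0.5% Tween 20, applied at 125 g/h unless otherwise indicated. Glasshouse at 24/16 °C day/night, 14 h light, 65% humidity. Damage was scored after 13 days on a five-point scale (5=80-100%, 1=0-19%).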

[2] = tested on: Amaranthus retoflexus (AMARE); experiment: Pre-emergence herbicidal glasshouse test, AMARE; conditions: 125 g/h, evaluated after 13 days, five-point scale
How it was run: as §1

Setaria faberi (SETFA) [3] = experiment: Post-emergence herbicidal glasshouse test, SETFA; conditions: 125 g/h, evaluated after 13 days, five-point scale
How it was run: as §1

[4] = tested on: Ipomoea hederacea (IPOHE); experiment: Post-emergence herbicidal glasshouse test, IPOHE; conditions: 125 g/h, evaluated after 13 days, five-point scale
How it was run: as §1

[5] = tested on: Ipomoea hederacea (IPOHE); experiment: Pre-emergence herbicidal glasshouse test, IPOHE; conditions: 125 g/h, evaluated after 13 days, five-point scale
How it was run: as §1

[6] = tested on: Echinochloa crus-galli (ECHCG); experiment: Post-emergence herbicidal glasshouse test, ECHCG; conditions: 125 g/h, evaluated after 13 days, five-point scale
How it was run: as §1

[7] = tested on: Echinochloa crus-galli (ECHCG); experiment: Pre-emergence herbicidal glasshouse test, ECHCG; conditions: 125 g/h, evaluated after 13 days, five-point scale
How it was run: as §1

[8] = tested on: Abutilon theophrasti (ABUTH); experiment: Post-emergence herbicidal glasshouse test, ABUTH; conditions: 125 g/h, evaluated after 13 days, five-point scale
Protocol: (§2) Seeds of a variety of test species are sown in standard soil in pots (Lolium perenne (LOLPE), Amaranthus retoflexus (AMARE), Abutilon theophrasti (ABUTH), Setaria faberi (SETFA), Echinochloa crus-galli (ECHCG), Ipomoea hederacea (IPOHE)). After cultivation for one day (pre-emergence) or after 8 days cultivation (post-emergence) under controlled conditions in a glasshouse (at 24/16° C., day/night; 14 hours light; 65% humidity), the plants are sprayed with an aqueous spray solution derived from the formulation of the technical active ingredient in acetone/water (50:50) solution containing 0.5% Tween 20 (polyoxyethelyene sorbitan monolaurate, CAS RN 9005-64-5). Compounds are applied at 125 g/h unless otherwise indicated. The test plants are then grown in a glasshouse under controlled conditions in a glasshouse (at 24/16° C., day/night; 14 hours light; 65% humidity) and watered twice daily. After 13 days for pre and post-emergence, the test is evaluated for the percentage damage caused to the plant. The biological activities are shown in the following table on a five-point scale (5=80-100%; 4=60-79%; 3=40-59%; 2=20-39%; 1=0-19%). “—” denotes not tested on this species or data not captured.

[9] = tested on: Abutilon theophrasti (ABUTH); experiment: Pre-emergence herbicidal glasshouse test, ABUTH; conditions: 125 g/h, evaluated after 13 days, five-point scale
Protocol: as §2

Setaria faberi (SETFA) [10] = experiment: Pre-emergence herbicidal glasshouse test, SETFA; conditions: 125 g/h, evaluated after 13 days, five-point scale
How it was run: as §1

| Compound | percentage damage caused to the plant, POST Application AMARE [1] | percentage damage caused to the plant, PRE Application AMARE [2] | percentage damage caused to the plant, POST Application SETFA (Setaria faberi (SETFA) [3]) | percentage damage caused to the plant, POST Application IPOHE [4] | percentage damage caused to the plant, PRE Application IPOHE [5] | percentage damage caused to the plant, POST Application ECHCG [6] | percentage damage caused to the plant, PRE Application ECHCG [7] | percentage damage caused to the plant, POST Application ABUTH [8] | percentage damage caused to the plant, PRE Application ABUTH [9] | percentage damage caused to the plant, PRE Application SETFA (Setaria faberi (SETFA) [10]) |
| --- | --- | --- | --- | --- | --- | --- | --- | --- | --- | --- |
| CC(C)OC(=O)Nc1c(OC(F)(F)F)ccc(C(=O)Nc2nnnn2C)c1Cl [Compound 1.007] | 4 (4=60-79%) | 5 (5=80-100%) | 4 (4=60-79%) | 4 (4=60-79%) | 4 (4=60-79%) | 4 (4=60-79%) | 5 (5=80-100%) | 5 (5=80-100%) | 5 (5=80-100%) | 4 (4=60-79%) |
| CCOC(=O)Nc1c(OC(F)F)ccc(C(=O)Nc2nnnn2C)c1Cl [Compound 1.008] | 4 (4=60-79%) | 5 (5=80-100%) | 4 (4=60-79%) | 4 (4=60-79%) | 4 (4=60-79%) | 4 (4=60-79%) | 5 (5=80-100%) | 4 (4=60-79%) | 5 (5=80-100%) | 4 (4=60-79%) |
| CCOC(=O)Nc1c(OC(F)F)ccc(C(=O)Nc2nnnn2CC)c1Cl [Compound 1.009] | 4 (4=60-79%) | 5 (5=80-100%) | 3 (3=40-59%) | 4 (4=60-79%) | 4 (4=60-79%) | 5 (5=80-100%) | 4 (4=60-79%) | 4 (4=60-79%) | 5 (5=80-100%) | 3 (3=40-59%) |
| CCn1nnnc1NC(=O)c1ccc(OC(F)F)c(NC(=O)OC)c1Cl [Compound 1.010] | 4 (4=60-79%) | 3 (3=40-59%) | 5 (5=80-100%) | 4 (4=60-79%) | 4 (4=60-79%) | 5 (5=80-100%) | 3 (3=40-59%) | 3 (3=40-59%) | 5 (5=80-100%) | 3 (3=40-59%) |
